Results reported in article PMC8795197, “Safety and activity of WX-0593 (Iruplinalkib) in patients with ALK- or ROS1-rearranged advanced non-small cell lung cancer: a phase 1 dose-escalation and dose-expansion trial” (Signal Transduction and Targeted Therapy, 2022).
Read-outs that look alike come from different tables or passages of the source.

Assays:
LU-01-0319R NSCLC PDX = test: PDX model resistant to crizotinib; type: in vivo; conditions: WX-0593 2.5, 5, 10 mg/kg; ceritinib 10/20 mg/kg; brigatinib 10 mg/kg
Ba/F3 CD74-ROS1-L1951R = test: Growth of transfected Ba/F3 cells (CellTiter-Glo, 3 days); type: cell-based; conditions: Mus musculus, BaF3
Protocol: (§1) Harvest cells during the logarithmic growth period and count cells using blood counting chamber. Adjust cell concentration with culture medium. Add 90µl cell suspensions to two 96-well plates to the final cell density as described before. Incubate the plate overnight in humidified incubator at 37℃ with 5% CO2. Dispense 10µl drug solution (10×) to each well (triplicate for each concentration), and the DMSO final concentration in culture medium is 0.1% [v/v]. Culture the plates for 3 days.On Day 3, Read luminescent using Multi Label Reader. The software of GraphPad Prism was used to calculate IC50. The graphical curves were fitted using a nonlinear regression model with a sigmoidal dose response.

[1] = tested on: Ba/F3 SLC34A2-ROS1-G2032R; test: as above; type: cell-based; conditions: Mus musculus, BaF3
Protocol: as §1

Ba/F3 SLC34A2-ROS1 = test: as above; type: cell-based; conditions: Mus musculus, BaF3
Protocol: as §1

[2] = tested on: Ba/F3 SLC34A2-ROS1-L2026M; test: as above; type: cell-based; conditions: Mus musculus, BaF3
Protocol: as §1

Ba/F3 CD74-ROS1-D2033N = test: as above; type: cell-based; conditions: Mus musculus, BaF3
Protocol: as §1

Ba/F3 ALK-I1171N = test: as above; type: cell-based; conditions: Mus musculus, BaF3
Protocol: as §1, with “days. On” for “days.On”

Ba/F3 ALK-F1174V = test: as above; type: cell-based; conditions: Mus musculus, BaF3
Protocol: as §1, with “days. On” for “days.On”

Ba/F3 ALK-V1180L = test: as above; type: cell-based; conditions: Mus musculus, BaF3
Protocol: as §1, with “days. On” for “days.On”

Ba/F3 ALK-I1171T = test: as above; type: cell-based; conditions: Mus musculus, BaF3
Protocol: as §1, with “days. On” for “days.On”

Ba/F3 ALK-L1196M = test: as above; type: cell-based; conditions: Mus musculus, BaF3
Protocol: as §1, with “days. On” for “days.On”

Ba/F3 ALK-L1152P = test: as above; type: cell-based; conditions: Mus musculus, BaF3
Protocol: as §1, with “days. On” for “days.On”

Ba/F3 ALK-C1156Y = test: as above; type: cell-based; conditions: Mus musculus, BaF3
Protocol: as §1, with “days. On” for “days.On”

Ba/F3 ALK-G1269A = test: as above; type: cell-based; conditions: Mus musculus, BaF3
Protocol: as §1, with “days. On” for “days.On”

Ba/F3 ALK-T1151Tins = test: as above; type: cell-based; conditions: Mus musculus, BaF3
Protocol: as §1, with “days. On” for “days.On”

Ba/F3 ALK-G1202R = test: as above; type: cell-based; conditions: Mus musculus, BaF3
Protocol: as §1, with “days. On” for “days.On”

Ba/F3 ALK-WT = test: as above; type: cell-based; conditions: Mus musculus, BaF3
Protocol: as §1, with “days. On” for “days.On”

Ba/F3 ALK-I1171S = test: as above; type: cell-based
Protocol: as §1, with “days. On” for “days.On”

Ba/F3 ALK-G1202del = test: as above; type: cell-based; conditions: Mus musculus, BaF3
Protocol: as §1, with “days. On” for “days.On”

Ba/F3 ALK-F1174L = test: as above; type: cell-based; conditions: Mus musculus, BaF3
Protocol: as §1, with “days. On” for “days.On”

Ba/F3 ALK-L1152R = test: as above; type: cell-based; conditions: Mus musculus, BaF3
Protocol: as §1, with “days. On” for “days.On”

Ba/F3 ALK-F1174C = test: as above; type: cell-based
Protocol: as §1, with “days. On” for “days.On”

[3] = tested on: NSCLC patients with ALK or ROS1 rearrangement; conditions: cited from earlier work
[4] = tested on: patients treated with ALK TKIs; conditions: cited from earlier work
Ba/F3 CD74-ROS1-S1986F = test: Growth of transfected Ba/F3 cells (CellTiter-Glo, 3 days); type: cell-based; conditions: Mus musculus, BaF3
Protocol: as §1

Ba/F3 CD74-ROS1-S1986Y = test: as above; type: cell-based; conditions: Mus musculus, BaF3
Protocol: as §1

Q: With `C[C@@H](Oc1cc(-c2cnn(C3CCNCC3)c2)cnc1N)c1c(Cl)ccc(F)c1Cl` [Crizotinib] as the molecule, how does the anti-tumor effect (LU-01-0319R NSCLC PDX) read?
A: The anti-tumor effect was “resistant”.

Q: And the IC50 (Ba/F3 SLC34A2-ROS1)?
A: Its IC50 is 8 nM.

Q: And the IC50 [2]?
A: Its IC50 is 162 nM.

Q: For `C[C@@H]1CN(C(=O)c2ccc(NC(=O)c3cc(O[C@H](C)c4c(Cl)ccc(F)c4Cl)c(N)nn3)cc2)C[C@H](C)N1` [Ensartinib], which IC50 (Ba/F3 ALK-I1171N; ALK-I1171N, read-out: IC50) is on record?
A: The IC50 was 18.4 nM.

Q: What about the IC50 (Ba/F3 ALK-F1174V; ALK-F1174V, read-out: IC50) of the same molecule?
A: Its IC50 is 54.5 nM.

Q: What about the IC50 (Ba/F3 ALK-V1180L; ALK-V1180L, read-out: IC50) of the same molecule?
A: The IC50 was 16.6 nM.

Q: And the IC50 (Ba/F3 ALK-I1171T; ALK-I1171T, read-out: IC50)?
A: The IC50 was 28 nM.

Q: And the IC50 (Ba/F3 ALK-L1196M; ALK-L1196M, read-out: IC50)?
A: Its IC50 is 98 nM.

Q: And the IC50 (Ba/F3 ALK-L1152P; ALK-L1152P, read-out: IC50)?
A: Its IC50 is 25.7 nM.

Q: And the IC50 (Ba/F3 ALK-C1156Y; ALK-C1156Y, read-out: IC50)?
A: Its IC50 is 17 nM.

Q: And the IC50 (Ba/F3 ALK-G1269A; ALK-G1269A, read-out: IC50)?
A: Its IC50 is 212 nM.

Q: What about the IC50 (Ba/F3 ALK-T1151Tins; ALK-T1151Tins, read-out: IC50) of the same molecule?
A: The IC50 was 42 nM.

Q: What about the IC50 (Ba/F3 ALK-G1202R; ALK-G1202R, read-out: IC50) of the same molecule?
A: The IC50 was 409 nM.

Q: What about the IC50 (Ba/F3 ALK-WT; ALK-WT, read-out: IC50) of the same molecule?
A: Its IC50 is 14 nM.

Q: And the IC50 (Ba/F3 ALK-I1171S; Mus musculus, BaF3, ALK-I1171S, first listing (r12), read-out: IC50)?
A: Its IC50 is 39 nM.

Q: What about the IC50 (Ba/F3 ALK-I1171S; Mus musculus, BaF3, ALK-I1171S, second listing (r19), read-out: IC50) of the same molecule?
A: Its IC50 is 41.5 nM.

Q: What about the IC50 (Ba/F3 ALK-G1202del; ALK-G1202del, read-out: IC50) of the same molecule?
A: The IC50 was 932 nM.

Q: And the IC50 (Ba/F3 ALK-F1174L; ALK-F1174L, read-out: IC50)?
A: Its IC50 is 29 nM.

Q: What about the IC50 (Ba/F3 ALK-L1152R; ALK-L1152R, read-out: IC50) of the same molecule?
A: The IC50 was 71.4 nM.

Q: And the IC50 (Ba/F3 ALK-F1174C; Mus musculus, BaF3, ALK-F1174C, first listing (r10), read-out: IC50)?
A: The IC50 was 62 nM.

Q: What about the IC50 (Ba/F3 ALK-F1174C; Mus musculus, BaF3, ALK-F1174C, second listing (r15), read-out: IC50) of the same molecule?
A: Its IC50 is 62.2 nM.

Q: What about the ORR ([3]; ALK-rearranged patients) of the same molecule?
A: The ORR was 60%.

Q: And the “rash, % of patients” value [4]?
A: The value was 56%.

Q: What about the IC50 (Ba/F3 CD74-ROS1-L1951R) of the same molecule?
A: The IC50 was 970 nM.

Q: What about the IC50 [1] of the same molecule?
A: Its IC50 is 1640 nM.

Q: What about the IC50 (Ba/F3 SLC34A2-ROS1) of the same molecule?
A: The IC50 was 49 nM.

Q: And the IC50 (Ba/F3 CD74-ROS1-S1986F)?
A: The IC50 was 192 nM.

Q: And the IC50 [2]?
A: The IC50 was 278 nM.

Q: And the IC50 (Ba/F3 CD74-ROS1-D2033N)?
A: The IC50 was 195 nM.

Q: What about the IC50 (Ba/F3 CD74-ROS1-S1986Y) of the same molecule?
A: Its IC50 is 189 nM.

Q: Which results are given for `C[C@H]1Oc2cc(cnc2N)-c2c(nn(C)c2C#N)CN(C)C(=O)c2ccc(F)cc21` [Lorlatinib]?
A: IC50 (Ba/F3 ALK-I1171N): 41.1 nM; IC50 (Ba/F3 ALK-F1174V): 16.1 nM; IC50 (Ba/F3 ALK-V1180L): 5.2 nM; IC50 (Ba/F3 ALK-I1171T): 19 nM; IC50 (Ba/F3 ALK-L1196M): 54 nM; IC50 (Ba/F3 ALK-L1152P): 4.6 nM; IC50 (Ba/F3 ALK-C1156Y): 4 nM; IC50 (Ba/F3 ALK-G1269A): 35 nM; IC50 (Ba/F3 ALK-T1151Tins): 7 nM; IC50 (Ba/F3 ALK-G1202R): 26 nM; IC50 (Ba/F3 ALK-WT): 4 nM; IC50 (Ba/F3 ALK-I1171S): 52.8 nM; IC50 (Ba/F3 ALK-I1171S; Mus musculus, BaF3): 33 nM; IC50 (Ba/F3 ALK-G1202del): 215 nM; IC50 (Ba/F3 ALK-F1174L): 4 nM; IC50 (Ba/F3 ALK-L1152R): 17.4 nM; IC50 (Ba/F3 ALK-F1174C): 15.9 nM; IC50 (Ba/F3 ALK-F1174C; Mus musculus, BaF3): 11 nM; ORR ([3]; ALK TKI-naive patients with ROS1 rearrangement): 62%; ORR ([3]; ROS1 rearrangement, crizotinib as the only TKI): 35%; IC50 (Ba/F3 CD74-ROS1-L1951R): 5.1 nM; IC50 [1]: 197 nM; IC50 (Ba/F3 SLC34A2-ROS1): < 1 nM; IC50 (Ba/F3 CD74-ROS1-S1986F): 1.1 nM; IC50 [2]: < 1 nM; IC50 (Ba/F3 CD74-ROS1-D2033N): 1.7 nM; IC50 (Ba/F3 CD74-ROS1-S1986Y): 1.5 nM
